# Source: patent US7807663B2, “Therapeutic agents for diabetes” (Ajinomoto Co., Inc., priority 2003, dated 2010)
# System: adipose cells of rats
# Experiment: Evaluation of the sugar transportation activity (2-[14C(U)]-deoxy-D-glucose incorporation)
# Assay type: cell-based, Wistar rats
# Settings: concentration with reinforcing effect of 50% of that of insulin (100 nM) = 100%; rat adipose cells, 30 min pre-culture at 37° C., 5 min uptake
# Procedure: 1. Preparation of Adipose Cells of Rats:
# After the decapitation and venesection of 6 male Wistar rats (body weight: 150 to 200 g), an incision was made in the abdomen of each rat to extract 6 g in total of epididymal adipose tissues. The tissues were finely cut into 2 mm×2 mm pieces in 6 ml of KRH (Krebs-Ringer Hepes, composition: 130 mM of sodium chloride, 4.7 mM of potassium chloride, 1.2 mM of potassium dihydrogenphosphate, 1.2 mM of magnesium sulfate, 1 mM of calcium chloride and 25 mM of Hepes, pH=7.6) containing 5% of BSA (bovine serum albumin). 24 mg of collagenase (type I) was added thereto and the digestion treatment was conducted for about 40 minutes to obtain about 6 ml of isolated adipose cells. The collagenase was removed by the buffer exchange. 2% BSA/KRH solution was added to the residue for the re-suspension to obtain 45 ml of an adipose cell suspension.
# 2. Evaluation of the Sugar Transportation Activity:
# The sugar transportation activity of the compound (I) of the present invention was evaluated with reference to a method described in a literature [Annual Review of Biochemistry, Vol. 55, p. 1059 (1986)]. In the test, 200 μL of the adipose cell suspension was poured in each polystyrene test tube, 100 μL of the solution of the test substance (by dilution of 10 mg/mL dimethyl sulfoxide solution with KRH) was added thereto, and the obtained mixture was shaken and then cultured at 37° C. for 30 minutes. The sugar transportation activity was evaluated by measuring the quantity of 2-[^14C(U)]-deoxy-D-glucose incorporated per a unit time. Namely, 2-[^14C(U)]-deoxy-D-glucose was added to the adipose cell suspension after the pre-culture (the final concentration: 0.5 μCi/sample). 5 minutes after, cytochalasin B (final concentration: 10 μM) was added to the mixture to terminate the sugar transportation. After forming a dinonyl phthalate layer, the obtained mixture was centrifuged to separate the adipose cells from the buffer. The quantity of 2-[^14C(U)]-deoxy-D-glucose contained in the adipose cell layer was determined with a liquid scintillation counter to determine the quantity of the incorporated sugar. In this evaluation system, when insulin (100 nM) having the effect of reinforcing the sugar transportation was used, the effect was about 7 times as high as that obtained in the insulin-free control group.
# The results of the evaluation of the sugar transportation activity obtained by using 100 μg/mL of the compound (I) of the present invention are shown in Table 3. The sugar transportation activity in Table 3 was evaluated on the basis of the reinforcing effect of insulin (100 nM). The sugar transportation activity A in Table 3 was determined in terms of the concentration (EC50: μg/mL) of a test compound, having a reinforcing effect corresponding to 50% on the basis of the reinforcing effect of insulin (100 nM) having a reinforcing effect of 100%.
# The symbols in Table 3 are as follows: • No: Compound No. in Tables 1 and 2, and • A: sugar transportation activity.
row,A: sugar transportation activity (EC50) [µg/mL],Compound
1,6,COC(=O)N1[C@@H]2CCCC[C@H]2NC2=C(C(=O)NC2)[C@H]1c1ccccc1OC [Compound 37]
2,4.2,CCOC(=O)N1[C@@H]2CCCC[C@H]2NC2=C(C(=O)NC2)[C@H]1c1ccccc1OC [Compound 38]
3,6,COc1ccccc1[C@@H]1C2=C(CNC2=O)N[C@@H]2CCCC[C@H]2N1C(=O)OCc1ccccc1 [Compound 39]
4,11,COc1ccccc1[C@@H]1C2=C(CNC2=O)N[C@@H]2CCCC[C@H]2N1C(=O)Oc1ccccc1 [Compound 40]
5,3.6,CCNC(=O)N1[C@@H]2CCCC[C@H]2NC2=C(C(=O)NC2)[C@H]1c1ccccc1OC [Compound 41]
6,7,CCCNC(=O)N1[C@@H]2CCCC[C@H]2NC2=C(C(=O)NC2)[C@H]1c1ccccc1OC [Compound 42]
7,15,CCOc1ccccc1[C@@H]1C2=C(CNC2=O)N[C@@H]2CCCC[C@H]2N1C(C)=O [Compound 46]
8,1.9,CCOc1ccccc1[C@@H]1C2=C(CNC2=O)N[C@@H]2CCCC[C@H]2N1C(=O)CC [Compound 47]
9,1.3,CCCC(=O)N1[C@@H]2CCCC[C@H]2NC2=C(C(=O)NC2)[C@H]1c1ccccc1OCC [Compound 48]
10,5,CCOc1ccccc1[C@@H]1C2=C(CNC2=O)N[C@@H]2CCCC[C@H]2N1C(=O)C(F)(F)F [Compound 49]
11,13,CCOc1ccccc1[C@@H]1C2=C(CNC2=O)N[C@@H]2CCCC[C@H]2N1C(=O)COC(C)=O [Compound 50]
12,3.8,CCOc1ccccc1[C@@H]1C2=C(CNC2=O)N[C@@H]2CCCC[C@H]2N1C(=O)CO [Compound 51]
13,3.6,CCOc1ccccc1[C@@H]1C2=C(CNC2=O)N[C@@H]2CCCC[C@H]2N1C(=O)COC [Compound 52]
14,4,CCOCC(=O)N1[C@@H]2CCCC[C@H]2NC2=C(C(=O)NC2)[C@H]1c1ccccc1OCC [Compound 53]
15,1.5,CCOc1ccccc1[C@@H]1C2=C(CNC2=O)N[C@@H]2CCCC[C@H]2N1C(=O)OC [Compound 54]
16,7,CCOC(=O)N1[C@@H]2CCCC[C@H]2NC2=C(C(=O)NC2)[C@H]1c1ccccc1OCC [Compound 55]
17,12,CCNC(=O)N1[C@@H]2CCCC[C@H]2NC2=C(C(=O)NC2)[C@H]1c1ccccc1OCC [Compound 56]
18,14,CC(=O)N1[C@@H]2CCCC[C@H]2NC2=C(C(=O)NC2)[C@H]1c1ccccc1OC(C)C [Compound 57]
19,2,CCC(=O)N1[C@@H]2CCCC[C@H]2NC2=C(C(=O)NC2)[C@H]1c1ccccc1OC(C)C [Compound 58]
20,2,CCOCC(=O)N1[C@@H]2CCCC[C@H]2NC2=C(C(=O)NC2)[C@H]1c1ccccc1OC(C)C [Compound 59]
21,4.8,COC(=O)N1[C@@H]2CCCC[C@H]2NC2=C(C(=O)NC2)[C@H]1c1ccccc1OC(C)C [Compound 60]
22,0.9,CC(=O)N1[C@@H]2CCCC[C@H]2NC2=C(C(=O)NC2)[C@H]1c1ccccc1OC1CC1 [Compound 61]
23,4,CCOCC(=O)N1[C@@H]2CCCC[C@H]2NC2=C(C(=O)NC2)[C@H]1c1ccccc1OCc1ccccc1 [Compound 63]
24,3.6,CC(=O)N1[C@@H]2CCCC[C@H]2NC2=C(C(=O)NC2)[C@H]1c1ccccc1OCc1ccccc1 [Compound 64]
25,1,CCOCC(=O)N1[C@@H]2CCCC[C@H]2NC2=C(C(=O)NC2)[C@H]1c1ccccc1O [Compound 65]
26,3.7,CC(=O)N1[C@@H]2CCCC[C@H]2NC2=C(C(=O)NC2)[C@H]1c1ccccc1O [Compound 66]
27,2.7,O=C1NCC2=C1[C@@H](c1ccccc1OC(F)(F)F)N(C(=O)CO)[C@@H]1CCCC[C@H]1N2 [Compound 68]

# The next lines start with the molecule.
row,Compound,A: sugar transportation activity (EC50) [µg/mL]
1,COc1ccccc1[C@@H]1C2=C(CNC2=O)N[C@@H]2CCCC[C@H]2N1C(C)=O [Compound 1],1.3
2,CCC(=O)N1[C@@H]2CCCC[C@H]2NC2=C(C(=O)NC2)[C@H]1c1ccccc1OC [Compound 2],0.77
3,CCCC(=O)N1[C@@H]2CCCC[C@H]2NC2=C(C(=O)NC2)[C@H]1c1ccccc1OC [Compound 3],4.6
4,COc1ccccc1[C@@H]1C2=C(CNC2=O)N[C@@H]2CCCC[C@H]2N1C(=O)C1CC1 [Compound 4],0.5
5,COc1ccccc1[C@@H]1C2=C(CNC2=O)N[C@@H]2CCCC[C@H]2N1C(=O)C(F)(F)F [Compound 5],4.5
6,COc1ccccc1[C@@H]1C2=C(CNC2=O)N[C@@H]2CCCC[C@H]2N1C(=O)C(F)(F)C(F)(F)F [Compound 7],9.5
7,COc1ccccc1[C@@H]1C2=C(CNC2=O)N[C@@H]2CCCC[C@H]2N1C(=O)COC(C)=O [Compound 9],5.9
8,COCC(=O)N1[C@@H]2CCCC[C@H]2NC2=C(C(=O)NC2)[C@H]1c1ccccc1OC [Compound 10],2
9,CCOCC(=O)N1[C@@H]2CCCC[C@H]2NC2=C(C(=O)NC2)[C@H]1c1ccccc1OC [Compound 11],2.2
10,COc1ccccc1[C@@H]1C2=C(CNC2=O)N[C@@H]2CCCC[C@H]2N1C(=O)COc1ccccc1 [Compound 12],4.6
11,COc1ccccc1[C@@H]1C2=C(CNC2=O)N[C@@H]2CCCC[C@H]2N1C(=O)Cc1ccccc1 [Compound 13],5
12,CC=CC(=O)N1[C@@H]2CCCC[C@H]2NC2=C(C(=O)NC2)[C@H]1c1ccccc1OC [Compound 16],1.1
13,COC(=O)CCC(=O)N1[C@@H]2CCCC[C@H]2NC2=C(C(=O)NC2)[C@H]1c1ccccc1OC [Compound 17],4.8
14,COc1ccccc1[C@@H]1C2=C(CNC2=O)N[C@@H]2CCCC[C@H]2N1C(=O)CCCO [Compound 19],4.8
15,COc1ccccc1[C@@H]1C2=C(CNC2=O)N[C@@H]2CCCC[C@H]2N1C(=O)CCNC(=O)OCc1ccccc1 [Compound 22],8
16,COc1ccccc1[C@@H]1C2=C(CNC2=O)N[C@@H]2CCCC[C@H]2N1C(=O)CCN [Compound 23],8
17,COCCC(=O)N1[C@@H]2CCCC[C@H]2NC2=C(C(=O)NC2)[C@H]1c1ccccc1OC [Compound 24],3.4
18,COc1ccccc1[C@@H]1C2=C(CNC2=O)N[C@@H]2CCCC[C@H]2N1C(=O)CCc1ccccc1 [Compound 25],0.9
19,COc1ccccc1CCC(=O)N1[C@@H]2CCCC[C@H]2NC2=C(C(=O)NC2)[C@H]1c1ccccc1OC [Compound 26],4
20,COc1ccccc1[C@@H]1C2=C(CNC2=O)N[C@@H]2CCCC[C@H]2N1C(=O)CCc1ccc(F)c(F)c1 [Compound 27],4.2
21,COc1ccccc1[C@@H]1C2=C(CNC2=O)N[C@@H]2CCCC[C@H]2N1C(=O)CCSC [Compound 28],2.6
22,COc1ccccc1[C@@H]1C2=C(CNC2=O)N[C@@H]2CCCC[C@H]2N1C(=O)CC(C)=O [Compound 29],5.5
23,COc1ccccc1[C@@H]1C2=C(CNC2=O)N[C@@H]2CCCC[C@H]2N1C(=O)c1ccccn1 [Compound 33],10
24,COc1ccccc1[C@@H]1C2=C(CNC2=O)N[C@@H]2CCCC[C@H]2N1C(=O)c1ccncc1 [Compound 35],18
25,COc1ccccc1[C@@H]1C2=C(CNC2=O)N[C@@H]2CCCC[C@H]2N1C(=O)c1cnccn1 [Compound 36],8.6
